# Reference: PMC10882491 (Chemical Science, 2024)
# Key:
# [1] = target: T1, AURKA (Homo sapiens, UniProt O14965); assay: single-temperature TPP with PRM-MS in K562 lysate; format: cell-based
# T1 sequence (O14965 1-403): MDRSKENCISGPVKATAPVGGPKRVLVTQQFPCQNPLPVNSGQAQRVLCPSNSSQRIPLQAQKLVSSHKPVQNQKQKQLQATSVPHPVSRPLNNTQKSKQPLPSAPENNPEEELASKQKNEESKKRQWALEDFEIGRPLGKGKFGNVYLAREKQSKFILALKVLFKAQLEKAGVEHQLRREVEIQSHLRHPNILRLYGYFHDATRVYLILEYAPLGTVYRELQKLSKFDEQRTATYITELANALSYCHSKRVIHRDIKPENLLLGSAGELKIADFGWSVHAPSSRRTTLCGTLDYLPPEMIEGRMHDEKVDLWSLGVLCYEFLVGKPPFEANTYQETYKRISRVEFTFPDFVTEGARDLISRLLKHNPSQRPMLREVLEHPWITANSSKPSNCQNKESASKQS
# [2] = target: T2, GRK2 (Homo sapiens, UniProt P25098); assay: western blot CETSA, isothermal dose-response at […] °C; format: biochemical
# T2 sequence (P25098 1-689): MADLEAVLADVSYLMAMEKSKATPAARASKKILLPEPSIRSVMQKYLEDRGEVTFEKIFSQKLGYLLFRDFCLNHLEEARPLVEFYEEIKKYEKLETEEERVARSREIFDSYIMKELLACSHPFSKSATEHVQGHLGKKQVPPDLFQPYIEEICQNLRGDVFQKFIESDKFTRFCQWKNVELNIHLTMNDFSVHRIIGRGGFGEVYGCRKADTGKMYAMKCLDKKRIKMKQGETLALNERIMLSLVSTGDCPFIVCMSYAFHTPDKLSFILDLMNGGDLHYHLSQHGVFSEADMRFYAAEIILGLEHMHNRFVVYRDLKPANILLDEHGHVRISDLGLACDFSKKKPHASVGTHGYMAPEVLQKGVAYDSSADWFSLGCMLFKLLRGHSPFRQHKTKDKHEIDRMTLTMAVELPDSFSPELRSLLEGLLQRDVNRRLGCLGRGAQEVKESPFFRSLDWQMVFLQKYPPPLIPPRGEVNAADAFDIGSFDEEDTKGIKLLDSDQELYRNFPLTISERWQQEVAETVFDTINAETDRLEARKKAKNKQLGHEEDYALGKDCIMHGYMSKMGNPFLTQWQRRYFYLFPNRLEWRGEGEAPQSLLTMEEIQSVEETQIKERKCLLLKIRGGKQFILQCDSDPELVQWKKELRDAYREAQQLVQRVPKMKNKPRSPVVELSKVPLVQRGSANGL
# [3] = target: PIP4K2C (Homo sapiens, UniProt Q8TBX8); assay: NanoBRET target engagement in living HEK293 cells; format: cell-based
# PIP4K2C, sequence (Q8TBX8 2-421): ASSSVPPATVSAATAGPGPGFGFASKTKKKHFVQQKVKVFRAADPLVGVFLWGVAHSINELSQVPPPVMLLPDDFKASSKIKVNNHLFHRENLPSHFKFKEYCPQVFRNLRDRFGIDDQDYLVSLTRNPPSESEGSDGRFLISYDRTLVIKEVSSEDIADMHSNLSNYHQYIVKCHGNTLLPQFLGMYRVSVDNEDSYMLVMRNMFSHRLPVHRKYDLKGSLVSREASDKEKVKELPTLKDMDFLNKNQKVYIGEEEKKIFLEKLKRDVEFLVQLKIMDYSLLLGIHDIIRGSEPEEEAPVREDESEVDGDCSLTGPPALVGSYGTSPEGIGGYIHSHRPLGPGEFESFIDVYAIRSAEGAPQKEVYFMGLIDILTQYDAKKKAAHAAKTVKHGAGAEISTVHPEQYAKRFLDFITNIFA
compound,measurement,setting,value
COc1cc(Nc2ncc3c(n2)-c2ccc(Cl)cc2C(c2c(F)cccc2OC)=NC3)ccc1C(=O)O [alisertib],single-temperature TPP with PRM-MS in K562 lysate,[1],PRM data confirmed that all of these targets exhibit significantly higher abundance in the drug treatment groups
Cc1nc2ccc(CN(C)c3ccc(C(=O)N[C@@H](CCC(=O)O)C(=O)O)s3)cc2c(=O)[nH]1 [raltitrexed],IC50,[2],6.7 µM
NC(=O)c1nc(Nc2ccccc2)sc1NC(=O)C1CCCCC1 [UNC3230],IC50,[3],0.25 µM
